Data from patent publication US9624214B2, “Amino-substituted imidazo[1,2-a]pyridinecarboxamides and their use” (BAYER PHARMA AKTIENGESELLSCHAFT, priority 2012, dated 2017).
Counter-ions that a name gives are not always drawn.

Molecular target: T1, recombinant guanylate cyclase reporter cell line (Rattus norvegicus, UniProt P19686+P20595)
T1 construct: expressed in transfected cells
T1 sequence (P20595 1-619): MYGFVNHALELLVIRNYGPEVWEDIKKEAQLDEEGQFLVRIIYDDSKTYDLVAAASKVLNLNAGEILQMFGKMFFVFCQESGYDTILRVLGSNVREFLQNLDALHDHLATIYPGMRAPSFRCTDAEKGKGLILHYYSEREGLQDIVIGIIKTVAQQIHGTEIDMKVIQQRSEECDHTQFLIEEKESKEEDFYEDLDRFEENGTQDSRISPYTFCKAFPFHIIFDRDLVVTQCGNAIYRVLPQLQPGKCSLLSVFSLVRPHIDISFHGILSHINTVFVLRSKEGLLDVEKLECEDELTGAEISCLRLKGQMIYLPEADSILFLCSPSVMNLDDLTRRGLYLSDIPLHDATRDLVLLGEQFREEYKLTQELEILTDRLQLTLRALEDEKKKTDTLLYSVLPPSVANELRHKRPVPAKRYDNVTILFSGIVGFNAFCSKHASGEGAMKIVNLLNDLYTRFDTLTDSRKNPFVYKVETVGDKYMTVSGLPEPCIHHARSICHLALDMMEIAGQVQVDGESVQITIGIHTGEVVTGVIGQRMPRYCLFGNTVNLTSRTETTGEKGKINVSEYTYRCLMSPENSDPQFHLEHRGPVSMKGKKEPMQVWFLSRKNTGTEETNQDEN
T1 sequence (P19686 1-690): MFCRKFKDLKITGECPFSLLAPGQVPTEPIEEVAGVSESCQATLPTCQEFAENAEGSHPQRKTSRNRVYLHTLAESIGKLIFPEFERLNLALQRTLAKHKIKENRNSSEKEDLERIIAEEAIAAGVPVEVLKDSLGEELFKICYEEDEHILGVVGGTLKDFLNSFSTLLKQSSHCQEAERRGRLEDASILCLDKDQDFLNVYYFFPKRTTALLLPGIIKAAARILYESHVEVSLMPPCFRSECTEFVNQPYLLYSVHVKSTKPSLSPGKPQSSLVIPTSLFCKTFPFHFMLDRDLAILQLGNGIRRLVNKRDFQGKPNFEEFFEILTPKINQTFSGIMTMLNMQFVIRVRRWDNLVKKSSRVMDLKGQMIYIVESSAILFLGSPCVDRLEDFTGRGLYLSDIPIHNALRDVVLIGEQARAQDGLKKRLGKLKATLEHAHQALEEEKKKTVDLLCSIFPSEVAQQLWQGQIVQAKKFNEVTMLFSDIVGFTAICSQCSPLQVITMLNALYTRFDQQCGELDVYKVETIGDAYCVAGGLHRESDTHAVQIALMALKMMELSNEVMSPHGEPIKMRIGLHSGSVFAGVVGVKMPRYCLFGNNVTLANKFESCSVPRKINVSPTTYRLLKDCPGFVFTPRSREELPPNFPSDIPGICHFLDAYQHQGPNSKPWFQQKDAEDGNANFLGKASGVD
Experiment: B-2. Action on recombinant guanylate cyclase reporter cell line
Format: cell-based
Conditions: MEC = minimal effective concentration; in some cases mean values from individual determinations
Summary of the method: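 Reported value is the minimal effective concentration (MEC), in some cases a mean of single runs, taken from a recombinant rat guanylate cyclase reporter cell line.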

SMILES | MEC [µM]
Cc1nc2c(OCc3c(F)cccc3F)cccn2c1C(=O)NC(CN)c1ccc(F)c(F)c1 (single isomer, unassigned; enantiomer a) [Example 12, ent-N-[2-Amino-1-(3,4-difluorophenyl)ethyl]-8-[(2,6-difluorobenzyl)oxy]-2-methylimidazo[1,2-a]-pyridine-3-carboxamide (Enantiomer A)] | 1.00
Cc1nc2c(OCc3c(F)cccc3F)cccn2c1C(=O)NC(C)CN (single isomer, unassigned; enantiomer a) [Example 19, ent-N-(1-Aminopropan-2-yl)-8-[(2,6-difluorobenzyl)oxy]-2-methylimidazo[1,2-a]pyridine-3-carboxamide (Enantiomer A)] | 1.66
Cc1nc2c(OCc3c(F)cccc3F)cc(Cl)cn2c1C(=O)NCC(C)N (single isomer, unassigned; enantiomer a) [Example 29, ent-N-(2-Aminopropyl)-6-chloro-8-[(2,6-difluorobenzyl)oxy]-2-methylimidazo[1,2-a]pyridine-3-carboxamide (Enantiomer A)] | 0.20
Cc1cc(OCc2c(F)cccc2F)c2nc(C)c(C(=O)NCC(C)(N)C3CC3)n2c1 (single isomer, unassigned; enantiomer a) [Example 260, ent-N-(2-Amino-2-cyclopropylpropyl)-8-[(2,6-difluorobenzyl)oxy]-2,6-dimethylimidazo[1,2-a]-pyridine-3-carboxamide (Enantiomer A)] | 0.10
Cc1nc2c(OCc3c(F)cccc3F)cccn2c1C(=O)NCC(C)(N)CCOCc1ccccc1 (single isomer, unassigned; enantiomer a) [Example 266, ent-N-[2-Amino-4-(benzyloxy)-2-methylbutyl]-8-[(2,6-difluorobenzyl)oxy]-2-methylimidazo[1,2-a]pyridine-3-carboxamide (Enantiomer A)] | 0.03
Cc1cc(OCc2c(F)cccc2F)c2nc(C)c(C(=O)NCC(C)(N)CO)n2c1 (single isomer, unassigned; enantiomer a) [Example 268, ent-N-(2-Amino-3-hydroxy-2-methylpropyl)-8-[(2,6-difluorobenzyl)oxy]-2,6-dimethylimidazo-[1,2-a]pyridine-3-carboxamide (Enantiomer A)] | 0.55
Cc1cc(OCc2c(F)cccc2F)c2nc(C)c(C(=O)NCC(C)(N)CCO)n2c1 (single isomer, unassigned; enantiomer a) [Example 271, ent-N-(2-Amino-4-hydroxy-2-methylbutyl)-8-[(2,6-difluorobenzyl)oxy]-2,6-dimethylimidazo[1,2-a]pyridine-3-carboxamide (Enantiomer A)] | 0.30
Cc1nc2c(OCc3c(F)cccc3F)cccn2c1C(=O)NCC(C)(N)CCO (single isomer, unassigned; enantiomer a) [Example 272, ent-N-(2-Amino-4-hydroxy-2-methylbutyl)-8-[(2,6-difluorobenzyl)oxy]-2-methylimidazo[1,2-a]-pyridine-3-carboxamide (Enantiomer A)] | 5.5
CCC(C)(N)CNC(=O)c1c(C)nc2c(OCc3c(F)ccc(F)c3F)cc(C)cn12 (single isomer, unassigned; enantiomer a) [Example 274, ent-N-(2-Amino-2-methylbutyl)-2,6-dimethyl-8-[(2,3,6-trifluorobenzyl)oxy]imidazo[1,2-a]-pyridine-3-carboxamide (Enantiomer A)] | 0.10
CCC(C)(N)CNC(=O)c1c(C)nc2c(OCc3c(F)cccc3F)cc(OC)cn12 (single isomer, unassigned; enantiomer a) [Example 279, ent-N-(2-amino-2-methylbutyl)-8-[(2,6-difluorobenzyl)oxy]-6-methoxy-2-methylimidazo[1,2-a]pyridine-3-carboxamide (Enantiomer A)] | 0.3
Cc1cc(OCc2c(F)cccc2F)c2nc(C)c(C(=O)NCC(C)(N)CF)n2c1 (single isomer, unassigned; enantiomer a) [Example 283, ent-N-(2-amino-3-fluoro-2-methylpropyl)-8-[(2,6-difluorobenzyl)oxy]-2,6-dimethylimidazo[1,2-a]pyridine-3-carboxamide (Enantiomer A)] | 0.3
Cc1cc(OCc2c(F)ccc(F)c2F)c2nc(C)c(C(=O)NCC(C)(N)CF)n2c1 (single isomer, unassigned; enantiomer a) [Example 285, ent-N-(2-amino-3-fluoro-2-methylpropyl)-2,6-dimethyl-8-[(2,3,6-trifluorobenzyl)oxy]imidazo[1,2-a]pyridine-3-carboxamide (Enantiomer A)] | 0.3
CCC(C)(N)CNC(=O)c1c(C)nc2c(OCc3c(F)cccc3F)cc(C(F)F)cn12 (single isomer, unassigned; enantiomer a) [Example 287, ent-N-(2-amino-2-methylbutyl)-8-[(2,6-difluorobenzyl)oxy]-6-(difluoromethyl)-2-methylimidazo[1,2-a]pyridine-3-carboxamide Formate (Enantiomer A)] | 0.3
CCC(C)(N)CNC(=O)c1c(C)nc2c(OCc3c(F)cccc3F)cc(C(F)F)cn12 (single isomer, unassigned; enantiomer a) [Example 288, ent-N-(2-amino-2-methylbutyl)-8-[(2,6-difluorobenzyl)oxy]-6-(difluoromethyl)-2-methylimidazo[1,2-a]pyridine-3-carboxamide (Enantiomer A)] | 0.3
Cc1nc2c(OCc3c(F)cccc3F)cc(C(F)F)cn2c1C(=O)NCC(C)(N)CF (single isomer, unassigned; enantiomer a) [Example 291, ent-N-(2-amino-3-fluoro-2-methylpropyl)-8-[(2,6-difluorobenzyl)oxy]-6-(difluoromethyl)-2-methylimidazo[1,2-a]pyridine-3-carboxamide (Enantiomer A)] | 1.0
Cc1cc(OCc2c(F)cccc2F)c2nc(C)c(C(=O)NCC(C)(N)Cc3ccccn3)n2c1 (single isomer, unassigned; enantiomer a) [Example 298, ent-N-[2-amino-2-methyl-3-(pyridin-2-yl)propyl]-8-[(2,6-difluorobenzyl)oxy]-2,6-dimethyl-imidazo[1,2-a]pyridine-3-carboxamide (Enantiomer A)] | 0.10
CCC(C)(N)CNC(=O)c1c(C)nc2c(OCc3c(F)ccc(F)c3F)cc(C)cn12 (single isomer, unassigned; enantiomer a) [Example 300, ent-N-(2-amino-2-methylbutyl)-2,6-dimethyl-8-[(2,3,6-trifluorobenzyl)oxy]imidazo[1,2-a]pyridine-3-carboxamide (Enantiomer A) Hydrochloride] | 0.10
Cc1cc(OCc2c(F)cccc2F)c2nc(C)c(C(=O)NC3CCC3N)n2c1 (single isomer, unassigned; enantiomer a) [Example 328, ent-N-(2-aminocyclobutyl)-8-[(2,6-difluorobenzyl)oxy]-2,6-dimethylimidazo[1,2-a]pyridine-3-carboxamide (Enantiomer A)] | 3.00
Cc1cc(OCc2c(F)cccc2F)c2nc(C)c(C(=O)NC3CCC3(C)N)n2c1 (single isomer, unassigned; enantiomer a) [Example 332, ent-N-[2-amino-2-methylcyclobutyl]-8-[(2,6-difluorobenzyl)oxy]-2,6-dimethylimidazo[1,2-a]pyridine-3-carboxamide (Enantiomer A)] | 1.00
Cc1cc(OCc2c(F)cccc2F)c2nc(C)c(C(=O)NC3(C)CCC3(C)N)n2c1 (single isomer, unassigned; enantiomer a) [Example 336, ent-N-[(2-amino-1,2-dimethylcyclobutyl]-8-[(2,6-difluorobenzyl)oxy]-2,6-dimethylimidazo[1,2-a]pyridine-3-carboxamide (Enantiomer A)] | 0.30
